The record followed here is paper PMC11504387, “Synthesis and Biological Activity Assessment of 2-Styrylbenzothiazoles as Potential Multifunctional Therapeutic Agents” (Antioxidants, 2024).

Series [1] in a line: In vitro filtering parameters of O/W sunscreen formulation on PMMA plates. As to conditions: 3% in O/W sunscreen formulation. On the procedure: Synthesized compounds were incorporated at 3% concentration in a suitable oil-in-water (O/W) emulsion for cosmetic use as sunscreen.
INCI: Aqua, Glycerin, Xanthan Gum, Phenoxyethanol (and) Ethylhexylglycerin, Tribehenin PEG-20 Esters, Cetearyl Alcohol, Dicaprylyl Carbonate, PPG 26 Buteth-26 (and) PEG 40 Hydrogenated Castor Oil, C12-15 Alkyl Benzoate, Sodium hydroxide (sol. 10%).
A protocol previously reported by us was adopted. Briefly, 32.5 mg of each compound formulation was spread on the rough surface of 5 × 5 cm^2 PMMA plates in the form of small drops of approximately equal mass, in triplicate. The plates were placed in the dark for 15–30 min to allow the formation of a sun-stabilised standard layer and then inserted into the instrument and measured at five different points on each plate (UV transmittance range 290–400 nm). The blank was a plate coated with 32.5 mg glycerine, chosen for its non-fluorescence and UV transparency. In addition, in vitro SPF, UVAPF and ʎc values were calculated according to Equations (2)–(4) above. To evaluate the booster effect of selected synthesized compounds, they were incorporated at 3% concentration in an oil-in-water (O/W) sunscreen formulation with fixed SPF and UVAPf values (30 and 10, respectively).
Aiming to create compounds with diverse biological activities, the synthesized 2-styrylbenzothiazoles were examined for potential applications in sunscreens. Each candidate was incorporated into a standard cosmetic formulation at a concentration of 3% and subjected to photoprotective efficacy testing using the Diffey–Robson method. The formulation comprised an oil-in-water (O/W) emulsion suitable for sunscreen use, with each benzothiazole derivative being heat-solubilized in the oil phase and then dispersed into the emulsion using a turbo emulsifier. The mixture was then cooled, and the emulsion was spread onto polymethylmethacrylate (PMMA) plates before recording the transmittance spectra. The SPF value, UVA protection factor value (UVAPF), the […], and the critical wavelength (λc) were determined from the transmittance spectra using SPF calculator software and are presented in Table 3. These parameters are essential for evaluating the efficacy of potential sunscreen products.

Series [2] has as its system PMNL. Put plainly: ROS production in PMA-stimulated PMNL. The format is cell-based, human. The note with it: 10 µM; for ROS Production (% of Control): mean ± SD. On the procedure: After 10 min at 37 °C, PMA (0.1 μM) was added. The fluorescence emission at 530 nm was measured after excitation at 485 nm in a thermally controlled (37 °C) NOVOstar microplate reader (BMG Lab technologies GmbH, Offenburg, Germany). […] ROS generation was induced by phorbol-12-myristate-13-acetate (PMA), a widely recognized agent for stimulating ROS production in neutrophils and enhancing endogenous superoxide formation. Diphenyleneiodonium (DPI, 10 µM), a NADPH oxidase inhibitor, served as a positive control. Through this assay, we could assess the potential interaction of our compounds with intracellular ROS production and their capacity to act as radical scavengers within a relevant cellular context. Furthermore, the outcomes provided additional insights into their inhibitory mechanism and helped to determine whether they act directly or non-specifically, as there is evidence that an impact on the ROS levels in PMNL could be translated to modulation of 5-LO activity in the cellular environment. […] With those data in hand, together with 5-LO inhibition assay outcomes, a direct inhibition of the enzyme stands as the best fitting option regarding the mechanism of action of compounds BZTst4 and BZTst6. […] This phenomenon was not further explored because such investigation was beyond the scope of this work.

Series [3] has as its target T1, Human recombinant 5-LO (Homo sapiens, UniProt P09917).
T1 construct: made in house
T1 sequence (P09917 1-674): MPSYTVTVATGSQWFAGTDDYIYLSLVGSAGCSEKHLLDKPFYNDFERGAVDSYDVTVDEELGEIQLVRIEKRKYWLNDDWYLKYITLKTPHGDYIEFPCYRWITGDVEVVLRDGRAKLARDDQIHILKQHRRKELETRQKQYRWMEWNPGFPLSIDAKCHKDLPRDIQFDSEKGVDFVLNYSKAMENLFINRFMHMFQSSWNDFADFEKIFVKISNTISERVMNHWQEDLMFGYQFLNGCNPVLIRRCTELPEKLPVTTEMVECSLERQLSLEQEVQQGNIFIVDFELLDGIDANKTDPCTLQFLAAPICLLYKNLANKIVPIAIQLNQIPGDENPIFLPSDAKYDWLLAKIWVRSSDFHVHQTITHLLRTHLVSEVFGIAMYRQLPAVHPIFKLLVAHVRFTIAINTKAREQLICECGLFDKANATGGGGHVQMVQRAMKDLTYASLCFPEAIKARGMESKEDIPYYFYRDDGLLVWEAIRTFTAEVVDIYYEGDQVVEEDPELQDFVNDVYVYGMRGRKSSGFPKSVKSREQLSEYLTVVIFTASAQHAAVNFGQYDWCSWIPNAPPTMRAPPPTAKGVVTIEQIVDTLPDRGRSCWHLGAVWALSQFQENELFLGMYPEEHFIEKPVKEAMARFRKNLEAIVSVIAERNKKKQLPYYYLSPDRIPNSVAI
Put plainly: 5-Lipoxygenase inhibition in a cell-free assay. The format is biochemical. The note with it: for remaining activity at 10 µM: % relative to vehicle (DMSO), read-out: 5-LO Residual Activity (Cell-Free, 10 µM); for IC50: isolated enzyme. As to the method:
Human recombinant 5-LO was expressed and isolated as described before, and immediately used for activity assays after isolation. The 5-LO (0.5 µg, in 1 mL PBS pH 7.4 containing 1 mM EDTA) was pre-incubated with the test compounds for 10 min at 4 °C and pre-warmed for 30 s at 37 °C. 5-LO product formation was initiated by sequential addition of 1 mM CaCl2 and 20 μM arachidonic acid. After 10 min at 37 °C, the reaction was terminated by addition of 1 mL ice-cold methanol containing 200 ng PGB1 as internal standard. Formed 5-LO products (trans-LTB4, epi-trans-LTB4, and 5-HETE) were extracted using Sep-Pak C18 35 cc Vac Cartridges and analysed by UPLC-MS/MS as previously described.

Marks after values point to notes of the source that are not given here.

For the molecule `C(=C\c1nc2ccccc2s1)/c1ccccc1` [BZTst1, (E)-2-styrylbenzo[d]thiazole], in series [1], the SPF is listed as 13.88, the UVA/UVB is listed as 0.96, the UVAPF is listed as 7.08 and the “ʎc (critical wavelength)” value is given as 364 nm. In series [2], the “Effect on ROS production (in words)” value is “do not display any significant interference” and the “ROS Production (% of Control)” value is reported as 124.78 ± 17.88 % of control. Further, the remaining activity at 10 µM in series [3] was 72 ± 20.4%.

Regarding `Oc1ccc(/C=C/c2nc3ccccc3s2)cc1` [BZTst2, (E)-4-(2-(benzo[d]thiazol-2-yl)vinyl)phenol], in series [1], the SPF was found to be 2.59, the UVA/UVB is 1.46, the UVAPF came out at 5.69 and the “ʎc (critical wavelength)” value was 384 nm. In series [2], the “Effect on ROS production (in words)” value is reported as “unexpected rise in the ROS level” and the “ROS Production (% of Control)” value is on record as >150% ^a % of control. For the same molecule, in series [3], the remaining activity at 10 µM came out at 47.3 ± 20.2% and the IC50 was 9260 nM.

Take `COc1ccc(/C=C/c2nc3ccccc3s2)cc1` [BZTst3, (E)-2-(4-methoxystyryl)benzo[d]thiazole]: in series [1], the SPF is reported as 2.26, the UVA/UVB was 1.59, the UVAPF turned out to be 3.07 and the “ʎc (critical wavelength)” value was 378 nm. Besides, in series [2], the “Effect on ROS production (in words)” value is recorded as “do not display any significant interference” and the “ROS Production (% of Control)” value is reported as 108.70 ± 12.15 % of control. The remaining activity at 10 µM in series [3] is 46.7 ± 28.5%.

Regarding `Oc1ccc(/C=C/c2nc3ccccc3s2)cc1O` [BZTst4, (E)-4-(2-(benzo[d]thiazol-2-yl)vinyl)benzene-1,2-diol], in series [1], the SPF was 3.87, the UVA/UVB is 1.47, the UVAPF is given as 7.65 and the “ʎc (critical wavelength)” value worked out at 389 nm. Moreover, in series [2], the “Lowering of ROS production” value is reported as less than 50% and the “ROS Production (% of Control)” value was 53.81 ± 16.30 % of control. Also, in series [3], the remaining activity at 10 µM stood at 6.85 ± 3.72% and the IC50 came to 50 nM.

Turning to `COc1ccc(/C=C/c2nc3ccccc3s2)cc1O` [BZTst5, (E)-5-(2-(benzo[d]thiazol-2-yl)vinyl)-2-methoxyphenol], in series [1], the SPF is recorded as 2.91, the UVA/UVB was determined as 0.93, the UVAPF was found to be 2.70 and the “ʎc (critical wavelength)” value is 384 nm. In addition, in series [2], the “Effect on ROS production (in words)” value is given as “do not display any significant interference” and the “ROS Production (% of Control)” value was 99.62 ± 4.14 % of control. In addition, the remaining activity at 10 µM in series [3] came to 34.8 ± 18.4%.

Turning to `COc1cc(/C=C/c2nc3ccccc3s2)ccc1O` [BZTst6, (E)-4-(2-(benzo[d]thiazol-2-yl)vinyl)-2-methoxyphenol], in series [1], the SPF was 3.43, the UVA/UVB is given as 1.96, the UVAPF is given as 14.13 and the “ʎc (critical wavelength)” value came to 388 nm. Also, in series [2], the “Lowering of ROS production” value is less than 50% and the “ROS Production (% of Control)” value is reported as 62.50 ± 5.62 % of control. In series [3], the remaining activity at 10 µM was determined as 6.84 ± 3.38% and the half-inhibitory concentration (IC50) came out at 330 nM.

For orientation: IC50 means the concentration that inhibits the measured activity by half.
